Counter-ions that a name gives are not always drawn.
Molecular target: T1, HIV protease (Human immunodeficiency virus type 1 group M subtype B, UniProt P04585)
T1 construct: HIV protease consists of 99 amino acids and is evidently split off by itself from the pol polyprotein
Assay: Inhibition of HIV protease (cleavage of H-Ser-Phe-Asn-Phe-Opr-Gln-Ile-OH, HPLC)
Assay type: biochemical
Conditions: inhibitor concentration at which the cleavage rate is halved; pH 6, 2 hours; read-out: IC50
Outline: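 Substrate H-Ser-Phe-Asn-Phe-Opr-Gln-Ile-OH in MGTE buffer (MES, glycerol, Triton X-100, PMSF, pH 6) preincubated with inhibitor at 37 °C for 5-10 min, then reacted with protease at 35 °C for 2 h. RP18 HPLC at 215 nm; tetrapeptide fraction gives cleavage rate, IC50 where rate is halved.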

Compound	IC50 [nM]
CC(C)[C@H](NC(=O)C(CNC(=O)OC(C)(C)C)Cc1ccccc1)C(=O)N[C@@H](Cc1ccccc1)[C@@H](O)[C@H](O)[C@H](Cc1ccccc1)NC(=O)[C@@H](NC(=O)C(CNC(=O)OC(C)(C)C)Cc1ccccc1)C(C)C (single isomer, unassigned) [Example 105, N,N'-bis-<(2-Benzyl-3-tert.-butoxycarbonylamino)-propionyl-L-valyl>-2S,5S-diamino-1,6-diphenylhexane-3R,4R-diol]	19
CCCCC[C@H](NC(=O)[C@@H](NC(=O)[C@H](Cc1ccccc1)NC(=O)OC(C)(C)C)C(C)C)[C@@H](O)[C@H](O)[C@H](CCCCC)NC(=O)[C@@H](NC(=O)[C@H](Cc1ccccc1)NC(=O)OC(C)(C)C)C(C)C [Example 150, N,N'-bis-(tert.-Butoxycarbonyl-L-phenylalanyl-L-valyl)-6S,9S-diaminotetradecane-7R, 8R-diol]	95
COc1ccc(C[C@H](NC(=O)OC(C)(C)C)C(=O)N[C@H](C(=O)N[C@@H](Cc2ccccc2)[C@H](O)[C@@H](O)[C@H](Cc2ccccc2)NC(=O)[C@@H](NC(=O)[C@H](Cc2ccc(OC)cc2)NC(=O)OC(C)(C)C)C(C)C)C(C)C)cc1 [Example 77, N,N'-bis-<tert.-Butoxycarbonyl-(O-methyltyrosyl)-L-valyl>-2S,5S-diamino-1,6-diphenylhexane-3S,4S-diol]	9.2
CC(C)[C@H](NC(=O)[C@@H](N)Cc1ccc(O)cc1)C(=O)N[C@@H](Cc1ccccc1)[C@H](O)[C@@H](O)[C@H](Cc1ccccc1)NC(=O)[C@@H](NC(=O)[C@@H](N)Cc1ccc(O)cc1)C(C)C [Example 78, N,N'-bis-<L-Tyrosyl-L-valyl>-2S,5S-diamino-1,6-diphenyl-hexane-3S,4S-dioldihydrochloride]	1.8
CC(C)[C@H](NC(=O)[C@H](Cc1ccccc1)NC(=O)OC(C)(C)C)C(=O)N[C@@H](Cc1ccccc1)[C@H](O)[C@H](O)[C@H](Cc1ccccc1)NC(=O)[C@@H](NC(=O)[C@H](Cc1ccccc1)NC(=O)OC(C)(C)C)C(C)C [Example 7, N,N'-bis-(tert.-Butoxycarbonyl-L-phenylalanyl-L-valyl)-2S,5S-diamino-1,6-diphenylhexane-3R,4S-diol]	18
CC(C)[C@H](NC(=O)[C@@H](N)CCCCN)C(=O)N[C@@H](Cc1ccccc1)[C@@H](O)[C@H](O)[C@H](Cc1ccccc1)NC(=O)[C@@H](NC(=O)[C@@H](N)CCCCN)C(C)C [Example 10, N,N'-bis-(L-lysyl-L-valyl)-2S,5S-diamino-1,6-diphenylhexane-3R,4R-diol tetrahydrochloride]	17
CSCC[C@H](NC(=O)OC(C)(C)C)C(=O)N[C@H](C(=O)N[C@@H](Cc1ccccc1)[C@H](O)[C@@H](O)[C@H](Cc1ccccc1)NC(=O)[C@@H](NC(=O)[C@H](CCSC)NC(=O)OC(C)(C)C)C(C)C)C(C)C [Example 75, N,N'-bis-<tert.-Butoxycarbonyl-L-methionyl-L-valyl>-2S,5S-diamino-1,6-diphenylhexane-3S,4S-diol]	19
CC(C)C[C@H](NC(=O)OC(C)(C)C)C(=O)N[C@H](C(=O)N[C@@H](Cc1ccccc1)[C@H](O)[C@@H](O)[C@H](Cc1ccccc1)NC(=O)[C@@H](NC(=O)[C@H](CC(C)C)NC(=O)OC(C)(C)C)C(C)C)C(C)C [Example 88, N,N'-bis-<tert.-Butoxycarbonyl-L-leucyl-L-valyl>-2S,5S-diamino-1,6-diphenylhexane-3S,4S-diol]	1000
CC(C)[C@H](NC(=O)[C@@H](CNC(=O)OC(C)(C)C)Cc1ccccc1)C(=O)N[C@@H](Cc1ccccc1)[C@@H](O)[C@H](O)[C@H](Cc1ccccc1)NC(=O)[C@@H](NC(=O)[C@@H](CNC(=O)OC(C)(C)C)Cc1ccccc1)C(C)C [Example 106, N,N,-bis-<(2R-Benzyl-3-tert.-butoxycarbonylamino)-propionly-L-valyl>-2S,5S-diamino-1,6-diphenylhexane-3R,4R-diol]	85

Further lines, results first:

IC50 [nM]	Compound
1.8	CC(C)[C@H](NC(=O)[C@@H](N)CCS(C)(=O)=O)C(=O)N[C@@H](Cc1ccccc1)[C@@H](O)[C@H](O)[C@H](Cc1ccccc1)NC(=O)[C@@H](NC(=O)[C@@H](N)CCS(C)(=O)=O)C(C)C [Example 89, N,N'-bis-<L-(S-Dioxo)methionyl-L-valyl>-2S,5S-diamino-1,6-diphenylhexane-3R,4R-diol dihydrochloride]
280	CC(C)[C@H](NC(=O)[C@@H](N)Cc1ccccc1)C(=O)N[C@@H](CCc1ccncc1)[C@@H](O)[C@H](O)[C@H](CCc1ccncc1)NC(=O)[C@@H](NC(=O)[C@@H](N)Cc1ccccc1)C(C)C [Example 108, N,N'-bis-(L-Phenylalanyl-L-valyl)-3S,6S-diamino-1,8-di(4-pyridyl)-octane-,5R-diol tetrahydrochloride]
380	CC(C)[C@H](NC(=O)C(Cc1ccccc1)Cn1ccnc1)C(=O)N[C@@H](Cc1ccccc1)[C@H](O)[C@@H](O)[C@H](Cc1ccccc1)NC(=O)[C@@H](NC(=O)C(Cc1ccccc1)Cn1ccnc1)C(C)C (single isomer, unassigned) [Example 95, N,N'-bis-<(2-(1-Imidazolylmethyl)-3-phenylpropionyl)-L-valyl->-2S,5S-diamino-1,6-diphenylhexane-3S,4S-diol]
1.6	CC(C)C[C@H](N)C(=O)N[C@H](C(=O)N[C@@H](Cc1ccccc1)[C@H](O)[C@@H](O)[C@H](Cc1ccccc1)NC(=O)[C@@H](NC(=O)[C@@H](N)CC(C)C)C(C)C)C(C)C [Example 87, N,N'-bis-<L-Leucyl-L-valyl>-2S,5S-diamino-1,6-diphenyl-hexane-3S,4S-dioldihydrochloride]
24	CC(C)C(NC(=O)C(CN)Cc1ccccc1)C(=O)NC(Cc1ccccc1)C(O)C(O)C(Cc1ccccc1)NC(=O)C(NC(=O)C(CN)Cc1ccccc1)C(C)C (single isomer, unassigned) [Example 104, N,N'-bis-<(3-Amino-2-benzyl)-propionyl-L-valyl>-2S,5S-diamino-1,6-diphenylhexane-3R,4R-diol dihydrochloride]
95	CC(C)[C@H](NC(=O)[C@@H](N)Cc1ccccc1)C(=O)NCCCCNC(=O)[C@@H](NC(=O)[C@@H](N)Cc1ccccc1)C(C)C [Example 145, N,N'-bis-<L-Phenylalanyl-L-valyl>-1.4-diaminobutane dihydrochloride]
32	CC(C)[C@H](NC(=O)C(Cc1ccccc1)CS(=O)(=O)Cc1ccc(Cl)cc1)C(=O)N[C@@H](Cc1ccccc1)[C@@H](O)[C@H](O)[C@H](Cc1ccccc1)NC(=O)[C@@H](NC(=O)C(Cc1ccccc1)CS(=O)(=O)Cc1ccc(Cl)cc1)C(C)C (stereo partly drawn) [Example 123, N,N'-bis-<(2-(p-Chlorobenzylsulfonylmethyl)-3-phenyl-propionyl)-L-valyl>-2S,5S-diamino-1,6-diphenylhexane-3R,4R-diol]
20000	N[C@@H](CCCCNC(=O)OCc1ccccc1)C(=O)N[C@@H](Cc1ccccc1)[C@@H](O)[C@H](O)[C@H](Cc1ccccc1)NC(=O)[C@@H](N)CCCCNC(=O)OCc1ccccc1 [Example 132, N,N'-bis-<N^6 -Benzoxycarbonyl-L-lysyl>-2S,5S-diamino-1,6-diphenylhexane-3R,4R-diol dihydrochloride]
6.5	CC(C)[C@H](NC(=O)[C@@H](O)CCc1ccccc1)C(=O)N[C@@H](Cc1ccccc1)[C@H](O)[C@@H](O)[C@H](Cc1ccccc1)NC(=O)[C@@H](NC(=O)[C@@H](O)CCc1ccccc1)C(C)C [Example 94, N,N'-bis-<(2S-Hydroxy-4-phenylbutyryl)-L-valyl>-2S,5S-diamino-1,6-diphenylhexane-3S,4S-diol]
1.8	CC[C@H](C)[C@H](NC(=O)[C@@H](N)Cc1ccccc1)C(=O)N[C@@H](Cc1ccccc1)[C@H](O)[C@@H](O)[C@H](Cc1ccccc1)NC(=O)[C@@H](NC(=O)[C@@H](N)Cc1ccccc1)[C@@H](C)CC [Example 65, N,N'-bis-<L-Phenylalanyl-L-isoleucyl>-2S,5S-diamino-1,6-diphenylhexane-3S,4S-diol dihydrochloride]
1.7	CSCC[C@H](N)C(=O)N[C@H](C(=O)N[C@@H](Cc1ccccc1)[C@H](O)[C@@H](O)[C@H](Cc1ccccc1)NC(=O)[C@@H](NC(=O)[C@@H](N)CCSC)C(C)C)C(C)C [Example 74, N,N'-bis-<L-Methionyl-L-valyl>-2S,5S-diamino-1,6-diphenylhexane-3S,4S-dioldihydrochloride]
47	CC(C)[C@H](NC(=O)CSc1ccncc1)C(=O)N[C@@H](Cc1ccccc1)[C@@H](O)[C@H](O)[C@H](Cc1ccccc1)NC(=O)[C@@H](NC(=O)CSc1ccncc1)C(C)C [Example 59, N,N'-bis-<(4-Pyridylthio)-acetyl-L-valyl>-2S,5S-diamino-1,6-diphenylhexane-3R,4R-diol]
30	N[C@@H](Cc1ccccc1)C(=O)N[C@H](C(=O)N[C@@H](Cc1ccccc1)[C@@H](O)[C@H](O)[C@H](Cc1ccccc1)NC(=O)[C@@H](NC(=O)[C@@H](N)Cc1ccccc1)C1CCCCC1)C1CCCCC1 [Example 72, N,N'-bis-<L-Phenylalanyl-L-cyclohexylglycyl>-2S,5S-diamino-1,6-diphenylhexane-3R,4R-diol dihydrochloride]

Same assay, conditions: pH 6; read-out: IC50

IC50 [nM]	Compound
1.2	CC(C)[C@H](NC(=O)[C@H](Cc1ccccc1)NC(=O)[C@H]1CC[C@@H](N)CC1)C(=O)N[C@@H](Cc1ccccc1)[C@H](O)[C@@H](O)[C@H](Cc1ccccc1)NC(=O)[C@@H](NC(=O)[C@H](Cc1ccccc1)NC(=O)[C@H]1CC[C@@H](N)CC1)C(C)C [Example 49, N,N'-bis-(4Z-Aminocyclohexanecarbonyl-L-phenylalanyl-L-valyl)-2S, 5S-diamino-1,6-diphenyl-3S, 5S-diol dihydrochloride]

Same assay, conditions: read-out: IC50

IC50 [nM]	Compound
1.2	CC(C)[C@H](NC(=O)[C@@H](N)Cc1ccccc1)C(=O)N[C@@H](Cc1ccccc1)[C@H](O)[C@H](O)[C@H](Cc1ccccc1)NC(=O)[C@@H](NC(=O)[C@@H](N)Cc1ccccc1)C(C)C [Example 18, N,N'-bis-(L-Phenylalanyl-L-valyl)-2S,5S-diamino-1,6-diphenylhexane-3R,4S-diol dihydrochloride]
